Patent US8198299B2, “Cycloalkylidene and heterocycloalkylidene inhibitor compounds” (Gilead Sciences, Inc., priority 2008, dated 2012)

target: HDAC 1 (Homo sapiens, UniProt Q13547); test: HDAC 1 inhibition assay with about 3-hour enzyme/compound preincubation (fluorophore/quencher peptide substrate); assay type: biochemical; details: 3-hour preincubation of enzyme and compound at room temperature; read-out: HDAC 1 inhibitory activity (IC50 [μM]) (3-hour preincubation)
Procedure: HDAC inhibitory activity of the compound of Example 1 was measured by two types of assays in which HDAC 1 and 6 were used as a target molecule. The first assay was carried out without preincubation after addition of the enzyme. The test compound was suspended in and titrated in DMSO. It was then spotted into a 384-well test plate. The enzyme, HDAC 1 or 6, was diluted in assay buffer containing 25 mM Tris-HCl (pH 8.0), 137 mM NaCl, 2.7 mM KCl, and 0.01% Tween-20 and added to the pre-spotted compound. The peptide substrate containing a fluorophore/quencher pair was diluted in the same assay buffer and added to the compound/enzyme mix initiating the reaction. The reaction incubated at room temperature for about 45 minutes. A concentrated developer solution was diluted in the assay buffer, and added to the reaction. The reaction was incubated at room temperature for about 15 minutes and relative fluorescence was read on an instrument reader.
The second assay is similar to the first assay described above, except that preincubation is carried out for about 3 hours after the enzyme is introduced. The test compound was suspended in, and titrated in DMSO. It was then spotted into a 384-well test plate. The enzyme, HDAC 1 or 6, was diluted in the same assay buffer as used in the previous assay and added to the pre-spotted compound. The enzyme/compound mix was incubated at room temperature for about 3 hours. The peptide substrate containing a fluorophore/quencher pair was diluted in the assay buffer and added to the compound/enzyme mix initiating the reaction. The reaction incubated at room temperature for 45 minutes. A concentrated developer solution was diluted in the assay buffer, and added to the reaction. The reaction was incubated at room temperature for about 15 minutes and relative fluorescence was read on an instrument reader.

Chain of HDAC 1 (Q13547 whole entry, species assumed): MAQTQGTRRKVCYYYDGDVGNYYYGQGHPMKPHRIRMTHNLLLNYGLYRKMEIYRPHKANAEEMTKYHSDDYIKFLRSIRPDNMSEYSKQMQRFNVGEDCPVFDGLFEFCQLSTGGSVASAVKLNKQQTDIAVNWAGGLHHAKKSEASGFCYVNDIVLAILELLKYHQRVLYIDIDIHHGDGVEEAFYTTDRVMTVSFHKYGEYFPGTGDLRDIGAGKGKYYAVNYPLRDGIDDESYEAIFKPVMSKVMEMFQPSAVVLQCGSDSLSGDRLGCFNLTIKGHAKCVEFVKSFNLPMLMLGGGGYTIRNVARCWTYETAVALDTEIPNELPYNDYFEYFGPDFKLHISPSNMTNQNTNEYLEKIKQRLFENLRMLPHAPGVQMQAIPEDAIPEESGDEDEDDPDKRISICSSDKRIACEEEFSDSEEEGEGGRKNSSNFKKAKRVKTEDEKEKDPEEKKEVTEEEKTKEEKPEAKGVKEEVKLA

| IC50 [µM] | Structure (SMILES) |
| --- | --- |
| 0.0033 | Nc1ccccc1NC(=O)c1ccc(C2(c3nc(-c4ccc(N5CCNCC5)nc4)cs3)CCOCC2)cc1 [Example 35, N-(2-aminophenyl)-4-(4-(4-(6-(piperazin-1-yl)pyridin-3-yl)thiazol-2-yl)tetrahydropyran-4-yl)benzamide] |
| 0.067 | CN1CCc2nc(C3(c4ccc(C(=O)Nc5cc(F)ccc5N)cc4)CCOCC3)sc2C1 [Example 30, N-(2-amino-5-fluorophenyl)-4-(4-(5-methyl-4,5,6,7-tetrahydrothiazolo[5,4-c]pyridin-2-yl)tetrahydropyran-4-yl)benzamide] |
| 0.065 | CC(=O)c1sc(C2(c3ccc(C(=O)Nc4ccccc4N)cc3)CC2)nc1C [Example 3, 4-[1-(5-Acetyl-4-methyl-thiazol-2-yl)-cyclopropyl]-N-(2-amino-phenyl)-benzamide] |
| 0.363 | O=C(NO)c1ccc(C2(c3nccs3)CCOCC2)cc1 [Example 43, N-hydroxy-4-(4-(thiazol-2-yl)tetrahydropyran-4-yl)benzamide] |
| 0.331 | Cc1nc(C2(c3ccc(C(=O)Nc4ccccc4N)cc3)CC2)sc1C(=O)N(C)C [Example 4, 2-(1-(4-(2-aminophenylcarbamoyl)phenyl)cyclopropyl)-N,N-4-trimethylthiazole-5-carboxamide] |
| 0.0029 | Nc1ccc(-c2cccs2)cc1NC(=O)c1ccc(C2(c3nc(CN4CCOCC4)cs3)CCOCC2)cc1 [Example 33, N-(2-amino-5-(thiophen-2-yl)phenyl)-4-(4-(4-(morpholinomethyl)thiazol-2-yl)tetrahydropyran-4-yl)benzamide] |
| 0.00702 | Nc1ccccc1NC(=O)c1ccc(C2(c3nc(-c4cnccn4)cs3)CCOCC2)cc1 [Example 41, N-(2-aminophenyl)-4-(4-(4-(pyrazin-2-yl)thiazol-2-yl)tetrahydropyran-4-yl)benzamide] |
| 0.0208 | Nc1ccc(-c2ccc(F)cc2)cc1NC(=O)c1ccc(C2(c3nc4c(s3)COCC4)CC2)cc1 [Example 58, N-(4-amino-4′-fluorobiphenyl-3-yl)-4-(1-(6,7-dihydropyrano[4,3-d]thiazol-2-yl)cyclopropyl)benzamide] |
| 0.019 | CC(=O)N1CCc2nc(C3(c4ccc(C(=O)Nc5ccccc5N)cc4)CCOCC3)sc2C1 [Example 27, 4-(4-(5-acetyl-4,5,6,7-tetrahydrothiazolo[5,4-c]pyridin-2-yl)tetrahydropyran-4-yl)-N-(2-aminophenyl)benzamide] |
| 0.006 | CN1CCN(c2ccc(-c3csc(C4(c5ccc(C(=O)Nc6ccccc6N)cc5)CCOCC4)n3)cn2)CC1 [Example 25, N-(2-aminophenyl)-4-(4-(4-(6-(4-methylpiperazin-1-yl)pyridin-3-yl)thiazol-2-yl)tetrahydropyran-4-yl)benzamide] |
| 0.00625 | Nc1ccc(-c2ccc(F)cc2)cc1NC(=O)c1ccc(C2(c3nc(-c4cnccn4)cs3)CCOCC2)cc1 [Example 54, N-(4-amino-4′-fluorobiphenyl-3-yl)-4-(4-(4-(pyrazin-2-yl)thiazol-2-yl)tetrahydropyran-4-yl)benzamide] |
| 0.017 | Nc1ccccc1NC(=O)c1ccc(C2(c3nc4c(s3)COCC4)CCOCC2)cc1 [Example 26, N-(2-aminophenyl)-4-(4-(6,7-dihydropyrano[4,3-d]thiazol-2-yl)tetrahydropyran-4-yl)benzamide] |
| 0.024 | Cc1nc2ccccn2c1-c1csc(C2(c3ccc(C(=O)NO)cc3)CC2)n1 [Example 2, N-hydroxy-4-{1-[4-(2-methyl-imidazo[1,2-a]pyridin-3-yl)-thiazol-2-yl]-cyclopropyl}-benzamide] |
| 0.0029 | Nc1ccc(-c2ccc(F)cc2)cc1NC(=O)c1ccc(C2(c3nccs3)CCOCC2)cc1 [Example 36, N-(4-amino-4′-fluorobiphenyl-3-yl)-4-(4-(thiazol-2-yl)tetrahydropyran-4-yl)benzamide] |
| 0.0071 | CN1CCN(c2ccc(-c3csc(C4(c5ccc(C(=O)NO)cc5)CCOCC4)n3)cn2)CC1 [Example 44, N-hydroxy-4-(4-(4-(6-(4-methylpiperazin-1-yl)pyridin-3-yl)thiazol-2-yl)tetrahydropyran-4-yl)benzamide] |
| 0.019 | Nc1ccccc1NC(=O)c1ccc(C2(c3nc(-c4ccc(N5CCCC5)nc4)cs3)CCOCC2)cc1 [Example 20, N-(2-aminophenyl)-4-(4-(4-(6-(pyrrolidin-1-yl)pyridin-3-yl)thiazol-2-yl)tetrahydropyran-4-yl)benzamide] |
| 0.012 | Nc1ccccc1NC(=O)c1ccc(C2(c3nc(-c4cccnc4)cs3)CCCC2)cc1 [Example 6, N-(2-Amino-phenyl)-4-[1-(4-pyridin-3-yl-thiazol-2-yl)-cyclopentyl]-benzamide] |
| 0.00749 | Cc1ccc(-c2ccc(N)c(NC(=O)c3ccc(C4(c5nccs5)CCOCC4)cc3)c2)s1 [Example 46, N-(2-amino-5-(5-methylthiophen-2-yl)phenyl)-4-(4-(thiazol-2-yl)tetrahydropyran-4-yl)benzamide] |
| 0.00616 | Nc1ccc(-c2ccc(Cl)s2)cc1NC(=O)c1ccc(C2(c3ccccn3)CCOCC2)cc1 [Example 60, N-(2-amino-5-(5-chlorothiophen-2-yl)phenyl)-4-(4-(pyridin-2-yl)tetrahydropyran-4-yl)benzamide] |
| 0.00247 | Nc1ccc(-c2cccs2)cc1NC(=O)c1ccc(C2(c3ccccn3)CCOCC2)cc1 [Example 49] |
| 0.008 | Cc1nc2ccccn2c1-c1csc(C2(c3ccc(C(=O)Nc4ccccc4N)cc3)CCCC2)n1 [Example 7] |
| 0.0066 | Nc1ccccc1NC(=O)c1ccc(C2(c3nc(-c4ccc(N5CCN(C6CC6)CC5)nc4)cs3)CCOCC2)cc1 [Example 34, N-(2-aminophenyl)-4-(4-(4-(6-(4-cyclopropylpiperazin-1-yl)pyridin-3-yl)thiazol-2-yl)tetrahydropyran-4-yl)benzamide] |
| 0.119 | Nc1ccccc1NC(=O)c1ccc(C2(c3nccs3)CCOCC2)cc1 [Example 15] |
| 0.001 | Nc1ccc(-c2cccs2)cc1NC(=O)c1ccc(C2(c3nc(CN4CCCC4)cs3)CCOCC2)cc1 [Example 31, N-(2-amino-5-(thiophen-2-yl)phenyl)-4-(4-(4-(pyrrolidin-1-ylmethyl)thiazol-2-yl)tetrahydropyran-4-yl)benzamide] |
| 0.0239 | Cc1nc2ccccn2c1-c1csc(C2(c3ccc(C(=O)Nc4ccccc4N)cc3)CC2)n1 [Example 1, N-(2-amino-phenyl)-4-{1-[4-(2-methyl-imidazo[1,2-a]pyridin-3-yl)-thiazol-2-yl]-cyclopropyl}-benzamide] |
| 0.0518 | Nc1ccc(F)cc1NC(=O)c1ccc(C2(c3nc(-c4cccnc4)cs3)CC2)cc1 [Example 19, N-(2-Amino-5-fluoro-phenyl)-4-[1-(4-pyridin-3-yl-thiazol-2-yl)-cyclopropyl]-benzamide] |
| 0.00896 | Cc1nc(C2(c3ccc(C(=O)Nc4cc(-c5ccc(F)cc5)ccc4N)cc3)CCOCC2)sc1C [Example 62, N-(4-amino-4′-fluorobiphenyl-3-yl)-4-(4-(4,5-dimethylthiazol-2-yl)tetrahydropyran-4-yl)benzamide] |
